# Laboratory results reported in patent publication US20260028390A1, “ALPHA1-ANTITRYPSIN FOR USE IN THE TREATMENT OF DISEASES OR DISORDERS OF THE NERVOUS SYSTEM SUCH AS CHRONIC INFLAMMATORY DEMYELINATING POLYNEUROPATHY” (Ageronix SA, priority 2022, published 2026).
# Where “and” joins values, the source holds several entries; their conditions need not be identical. Identical values can stand only once.
# Legend:
# [1] = tested on: C3-PMP22 transgenic mice (CMT1A); assay: Sciatic nerve electrophysiology (EMG), CMT1A mouse study (50 mg/kg twice daily); format: in vivo; conditions: for Compound muscle action potential (Mean ± SEM) / Nerve conduction velocity (Mean ± SEM): CMT1A + AAT; for Amplitude, MEAN / Amplitude, individual mice / Conduction velocity, MEAN / Conduction velocity, individual mice / T1 distal, individual mice / T2 proximal, individual mice: CMT1A + hAAT
# Source text: (§1) As a murine model of CMT1A we used C3-PMP22 transgenic mice (B6.Cg-Tg(PMP22)C3Fbas/J, The Jackson Laboratory) which express three copies of a wild-type human peripheral myelin protein 22 (PMP22) gene (Verhamme, Camiel, et al. Journal of Neuropathology & Experimental Neurology 70.5 (2011): 386-398). Mice were housed in macrolon cages with filter hoods, in a continuously air-filtered room, thereby avoiding contamination. During experiments, paired animals were caged at a constant temperature with a day/night cycle of 12/12 hours. Animals were fed (control tap water and nutrition) ad libitum. Animal protocol is approved by the Animal Studies Committee of Languedoc Roussillon. This protocol and the laboratory procedures comply with French legislation, which implements the European Directives (Reference Number: D3417223, APAFIS #23920-2020020320279696 v3). Animal health was followed on a daily basis to ensure that only animals in good health enter the testing procedures and follow up the study.
# (§2) Animals were split in 3 groups (wild-type control (subcutaneous 0.9% NaCl), CMT1A-vehicle (subcutaneous 0.9% NaCl), CMT1A-human alpha-1 antitrypsin (subcutaneous, twice daily, 50 mg/kg per injection)) of 3 mice each (3 weeks old males of 18±2.5 g at the beginning of study) and all went through the following protocol after 7 days of acclimation on site.
# (§3) On the first and last day of treatment, the neuromuscular performance of animals was tested with a rotarod test, grip test and sciatic nerve electrophysiology test. After the last treatment at 8 weeks, these tests were repeated, and animals were sacrificed and the left sciatic nerve was sampled for histological evaluation of the number and size of […].
# Sciatic nerve electrophysiology (EMG) provides sensitive and quantitative approach to measure compound muscle action potential and nerve conduction velocity amplitude in the animals and was done by stimulation of the sciatic nerve. Similar compound muscle action potential (CMAP) amplitudes were observed between groups at the baseline (6 weeks old).
# [2] = tested on: C3-PMP22 transgenic mice (CMT1A); assay: Grip strength test, CMT1A mouse study (50 mg/kg twice daily); format: in vivo; conditions: for Grip strength (Mean ± SEM) / Grip strenght, Mean/animal / Grip strenght, set 1, individual animals / Grip strenght, set 2, individual animals / Grip strenght, set 3, individual animals: CMT1A + AAT
# Source text: as §1, §2, §3
# Grip strength test measures neuromuscular strength by assessing the animal's grasp of a metal grid. […] At the baseline, the differences of grip strengths between groups were not statistically significant.
# [3] = Plasma AAT levels, CMT1A mouse study (50 mg/kg twice daily); format: in vivo; conditions: CMT1A + AAT group
# Procedure: as §2
# Plasma levels of AAT were evaluated every 5 days from the first day of treatment to the last treatment day.
# AAT was not detected in plasma of the wild type control and CMT1A mice treated with vehicle at the analyzed time points (day 14, day 19, day 24 and day 29). The AAT was detected in plasma of CMT1A+AAT group at a mean of 6.07 μg/mL, 6.99 μg/mL, 8.14 μg/mL and 5.22 μg/mL at day 14, day 19, day 24 and day 29 respectively.
# [4] = tested on: C3-PMP22 transgenic mice (CMT1A); assay: Sciatic nerve histology, CMT1A mouse study (50 mg/kg twice daily); format: in vivo; conditions: 8 weeks old
# Procedure: as §2, §3
# [5] = tested on: plasma TNFα; assay: Plasma TNFα quantification, CIDP mouse model; format: in vivo; conditions: for Plasma TNFα concentration (Mean ± SD): CIDP mice; for TNFα conc: per animal, listed as hAAT
# Procedure: C57BL/6 mice were received at 8 weeks of age and housed under controlled conditions for the duration of the study. Three groups of 4 animals each were assigned to the following subcutaneous treatments twice daily at 7:00 AM and 7:00 PM for 2 weeks, from 20 to 35 days after the start of disease induction: • Wild type (WT) mice receiving the vehicle, 0.9% NaCl (positive control) • CIDP mice receiving the vehicle, 0.9% NaCl (negative control) • CIDP mice receiving human AAT (AAT), 50 mg/kg per injection
# On the day preceding disease induction (Day 1), on the first (Day 20) and on the last (Day 35) treatment day, animals were subjected to blood samplings for the determination of neurofilament light chain (NfL), tumour necrosing factor alpha (TNFα) and TMPRSS5 levels, as described in FIG. 20. In addition, plasma levels of AAT were evaluated on the last treatment day.
# [6] = tested on: CMT1A mice B6.Cg-Tg(PMP22)C3Fbas/J; assay: Rotarod latency to fall, CMT mice treated with AAT 180 mg/kg/day sc; format: in vivo, mouse
# [7] = CMT1A mice treated with AAT, 8 weeks old
# [8] = CMT1A + AAT, 50 mg/kg twice daily sc
# [9] = CMT1A mice, AAT 50 mg/kg sc twice daily
# [10] = Day 20, before compound treatment
# [11] = baseline (6 weeks old), CMT + hAAT, individual animal
substance,measurement,setting,value
alpha1-antitrypsin (AAT) protein,NCV compared to the vehicle treated group,"[1]; CMT1A + AAT treated group, 8 weeks old",increase
same,Compound muscle action potential (Mean ± SEM),[1]; 6 weeks old,6.47 ± 0.30 mV
same,Nerve conduction velocity (Mean ± SEM),[1]; 6 weeks old,24.91 ± 4.13 m/s
same,Nerve conduction velocity (Mean ± SEM),[1]; 8 weeks old,20.89 ± 1.63 m/s
same,Compound muscle action potential (Mean ± SEM),"[1]; 8 weeks old, p < 0.05 vs CMT1A + vehicle",5.63 ± 1.18 mV
same,"Amplitude, MEAN",[1]; 6 weeks old (baseline),6.471 mV
same,"Amplitude, individual mice",[1]; 6 weeks old (baseline),7.030 mV and 6.025 mV and 6.359 mV
same,"Conduction velocity, MEAN",[1]; 6 weeks old (baseline),24.909 m/s
same,"Conduction velocity, individual mice",[1]; 6 weeks old (baseline),31.277 m/s and 17.182 m/s and 26.268 m/s
same,"T1 distal, individual mice",[1]; 6 weeks old (baseline),0.00202 s and 0.00207 s and 0.0016 s
same,"T2 proximal, individual mice",[1]; 6 weeks old (baseline),0.0025 s and 0.00295 s and 0.00217 s
same,"Amplitude, MEAN",[1]; 8 weeks old,5.627 mV
same,"Amplitude, individual mice",[1]; 8 weeks old,3.799 mV and 5.260 mV and 7.822 mV
same,"Conduction velocity, MEAN",[1]; 8 weeks old,20.892 m/s
same,"Conduction velocity, individual mice",[1]; 8 weeks old,23.904 m/s and 18.310 m/s and 20.464 m/s
same,"T1 distal, individual mice",[1]; 8 weeks old,0.00251 s and 0.00236 s and 0.00228 s
same,"T2 proximal, individual mice",[1]; 8 weeks old,0.00313 s and 0.00318 s and 0.00302 s
same,EMG parameters compared to the control,[1]; [7],improvement
same,Grip strength (Mean ± SEM),[2]; 6 weeks old,5.86 ± 0.57 newtons
same,"Grip strenght, Mean/animal",[2]; 6 weeks old (baseline),5.10 Newtons and 6.97 Newtons and 5.51 Newtons
same,"Grip strenght, set 1, individual animals",[2]; 6 weeks old (baseline),5.84 Newtons and 7.10 Newtons and 5.94 Newtons
same,"Grip strenght, set 2, individual animals",[2]; 6 weeks old (baseline),7.62 Newtons and 7.19 Newtons and 3.08 Newtons
same,"Grip strenght, set 3, individual animals",[2]; 6 weeks old (baseline),1.82 Newtons and 6.62 Newtons and 7.52 Newtons
same,"Grip strenght, Mean/animal",[2]; 8 weeks old,5.45 Newtons and 4.86 Newtons and 3.88 Newtons
same,"Grip strenght, set 1, individual animals",[2]; 8 weeks old,6.55 Newtons and 4.01 Newtons and 2.76 Newtons
same,"Grip strenght, set 2, individual animals",[2]; 8 weeks old,4.38 Newtons and 6.93 Newtons and 3.67 Newtons
same,"Grip strenght, set 3, individual animals",[2]; 8 weeks old,5.43 Newtons and 3.63 Newtons and 5.21 Newtons
same,Grip strength (Mean ± SEM),[2]; 8 weeks old,4.73 ± 0.46 newtons
same,grip strength compared to the control group,[2]; [7],improvement
same,AAT detected in plasma (mean),[3]; day 14,6.07 µg/mL
same,AAT detected in plasma (mean),[3]; day 19,6.99 µg/mL
same,AAT detected in plasma (mean),[3]; day 24,8.14 µg/mL
same,AAT detected in plasma (mean),[3]; day 29,5.22 µg/mL
same,axonal diameter compared to the vehicle treated group,[4]; [8],significant increase
same,g-ratio compared to the vehicle treated group,[4]; [8],decrease
same,total number of axons per surface compared to the vehicle group,[4]; [8],Slight increase
same,"Sciatic nerve histology, Axonal diameter (Mean ± SEM)",[4]; [9],2.53 ± 0.15 ^††† μm
same,"Sciatic nerve histology, Axons/100 μm^2 (Mean ± SEM)",[4]; [9],39.33 ± 4.81
same,"Sciatic nerve histology, g-ratio (Mean ± SEM)",[4]; [9],0.63 ± 0.009 ^†††
same,plasma TNFα concentration compared to the CIDP+vehicle treated group,"[5]; CIDP + AAT, day 35",significant decrease
same,Plasma TNFα concentration (Mean ± SD),[5]; Day 1,138.46 ± 18.58 pg/mL
same,Plasma TNFα concentration (Mean ± SD),[5]; Day 20,1397.62 ± 330.96 pg/mL
same,Plasma TNFα concentration (Mean ± SD),[5]; Day 35,1046.73 ± 144.47 pg/mL
same,"Plasma TNFα, Mean Diff., CIDP + vehicle vs. CIDP + hAAT (Bonferroni's multiple comparisons test)",[5]; [10],−187.9
same,"Plasma TNFα, Significant?, CIDP + vehicle vs. CIDP + hAAT (Bonferroni's multiple comparisons test)",[5]; [10],No
same,"Plasma TNFα, Mean Diff., CIDP + vehicle vs. CIDP + hAAT (Bonferroni's multiple comparisons test)",[5]; Day 35,385.1
same,"TNFα conc, group MEAN",[5]; Day 1,138.46 pg/mL
same,"TNFα conc, group MEAN",[5]; Day 20,1397.62 pg/mL
same,"TNFα conc, group MEAN",[5]; Day 35,1046.73 pg/mL
same,TNFα conc,[5]; Day 1 (before model induction),125.451 pg/mL and 165.501 pg/mL and 135.780 pg/mL and 127.127 pg/mL
same,TNFα conc,[5]; Day 20 (before compound treatment),1705.849 pg/mL and 1029.281 pg/mL and 1208.445 pg/mL and 1646.907 pg/mL
same,TNFα conc,[5]; Day 35,910.997 pg/mL and 1161.216 pg/mL and 933.130 pg/mL and 1181.571 pg/mL
same,rotarod latency to fall vs CMT mice not treated with AAT,"[6]; CMT mice, AAT 90 mg/kg sc twice a day, 8 to 10 weeks of age, end of treatment",significant increase
same,"Rotarod latency, group Mean","[6]; baseline (6 weeks old), CMT + hAAT, 8 animals",71.46 s
same,"Rotarod latency, Mean/animal",[6]; [11],53.43 s and 52.98 s and 66.74 s and 56.96 s and 66.75 s and 65.56 s and 106.66 s and 102.61 s
same,"Rotarod latency, set 1",[6]; [11],53.47 s and 57.35 s and 69.94 s and 62.11 s and 65.03 s and 66.86 s and 110.28 s and 93.16 s
same,"Rotarod latency, set 2",[6]; [11],57.11 s and 51.61 s and 67.40 s and 54.79 s and 72.92 s and 68.48 s and 109.55 s and 105.36 s
same,"Rotarod latency, set 3",[6]; [11],49.72 s and 49.96 s and 62.87 s and 53.98 s and 62.30 s and 61.35 s and 100.14 s and 109.32 s
